The structures appear in SMILES notation.

The target of the test is T1, CRTH2 receptor (Homo sapiens, UniProt Q9Y5Y4).
T1 sequence (Q9Y5Y4 1-395): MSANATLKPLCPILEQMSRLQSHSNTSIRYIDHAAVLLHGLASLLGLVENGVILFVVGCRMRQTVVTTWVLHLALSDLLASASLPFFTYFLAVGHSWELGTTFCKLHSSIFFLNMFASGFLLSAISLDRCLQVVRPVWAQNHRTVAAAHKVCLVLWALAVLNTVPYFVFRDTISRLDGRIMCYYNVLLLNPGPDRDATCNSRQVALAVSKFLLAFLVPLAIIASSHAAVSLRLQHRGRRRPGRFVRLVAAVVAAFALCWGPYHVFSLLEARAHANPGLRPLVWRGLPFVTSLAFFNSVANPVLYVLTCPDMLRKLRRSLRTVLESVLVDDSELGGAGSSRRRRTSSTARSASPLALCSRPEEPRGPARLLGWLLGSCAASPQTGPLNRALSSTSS
Description: Radioligand binding assay ([3H]-PGD2 displacement, SPA). The settings on record: HEK cell membranes expressing the CRTH2 receptor, 1 nM [3H]-PGD2; Ki from IC50 by Cheng-Prusoff. Further details: expressed in transfected cells; host or cells: HEK cell membranes. The procedure: Radioligand Binding Assay
The receptor binding assay is performed in a final volume of 200 μL binding buffer [10 mM BES (pH 7.4), 1 mM EDTA, 10 mM manganese chloride, 0.01% BSA] and 1 nM [^3H]-PGD2 (Amersham Biosciences UK Ltd). Ligands are added in assay buffer containing a constant amount of DMSO (1% by volume). Total binding is determined using 1% by volume of DMSO in assay buffer and non-specific binding is determined using 10 μM of unlabeled PGD2 (Sigma). Human embryonic kidney (HEK) cell membranes (3.5 μg) expressing the CRTH2 receptor are incubated with 1.5 mg wheatgerm agglutinin SPA beads and 1 nM [^3H]-PGD2 (Amersham Biosciences UK Ltd) and the mixture incubated for 3 hours at room temperature. Bound [^3H]-PGD2 is detected using a Microbeta TRILUX liquid scintillation counter (Perkin Elmer). Compound IC50 value is determined using a 6-point dose response curve in duplicate with a semi-log compound dilution series. IC50 calculations are performed using Excel and XLfit (Microsoft), and this value is used to determine a Ki value for the test compound using the Cheng-Prusoff equation.
By Ki is commonly meant a measure of affinity in units of concentration, obtained from inhibition or displacement. The molecule `Cc1c(Cc2ccc(F)cc2)c(OC(F)F)nc2c(Cl)ccc(OCC(=O)O)c12` [Example 19, [8-chloro-2-difluoromethoxy-3-(4-fluorobenzyl)-4-methylquinolin-5-yloxy]acetic acid] displayed an inhibition constant Ki of under 100 nM.

`Cc1c(Cc2ccc(S(C)(=O)=O)cc2)c(OC(F)F)nc2c(F)ccc(OCC(=O)O)c12` [Example 48, [2-difluoromethoxy-8-fluoro-3-(4-methanesulfonylbenzyl)-4-methylquinolin-5-yloxy]acetic acid] returned a Ki of under 100 nM.

For the molecule `Cc1nc2c(Cl)ccc(CC(=O)O)c2c(C)c1Cc1ccc(Cl)cc1` [Example 6, [8-chloro-3-(4-chlorobenzyl)-2,4-dimethylquinolin-5-yl]acetic Acid], the Ki is under 100 nM.

Molecule `Cc1nc2cccc(OCC(=O)O)c2cc1Cc1ccc(Cl)cc1` [Example 79, [3-(4-chlorobenzyl)-2-methylquinolin-5-yloxy]acetic Acid] yielded a Ki of under 10000 nM.

In the case of `Cc1cc(OCC(=O)O)c2c(C)c(Cc3ccc(Cl)cc3)cnc2c1` [Example 78, [3-(4-chlorobenzyl)-4,7-dimethylquinolin-5-yloxy]acetic Acid], the Ki was under 10000 nM.

`Cc1c(Cc2ccc(Cl)cc2Cl)c(OC(F)F)nc2c(F)ccc(OCC(=O)O)c12` [Example 51, [3-(2,4-dichlorobenzyl)-2-difluoromethoxy-8-fluoro-4-methylquinolin-5-yloxy]acetic Acid]: the Ki is under 100 nM.

As to `Cc1c(Cc2ccc(Cl)cc2Cl)c(OC(F)F)nc2c(F)ccc(O[C@@H](C)C(=O)O)c12` [Example 68, (S)-2-[3-(2,4-dichlorobenzyl)-2-difluoromethoxy-8-fluoro-4-methylquinolin-5-yloxy]propionic Acid], the Ki is under 100 nM.

On to `CCc1nc2c(F)ccc(OCC(=O)O)c2c(OC(F)F)c1Cc1ccc(F)cc1` [Example 50, [4-difluoromethoxy-2-ethyl-8-fluoro-3-(4-fluorobenzyl)quinolin-5-yloxy]acetic Acid], for which the inhibition constant Ki is under 100 nM.

With `CCc1nc2c(F)ccc(OCC(=O)O)c2c(OC(F)F)c1Cc1ccc(S(C)(=O)=O)cc1` [Example 45, [4-difluoromethoxy-2-ethyl-8-fluoro-3-(4-methanesulfonylbenzyl)-quinolin-5-yloxy]acetic Acid], the Ki was under 100 nM.

`Cc1nc2c(Cl)ccc(OCC(=O)O)c2c(C)c1Cc1ccc(S(C)(=O)=O)cc1Cl` [Example 38, [8-chloro-3-(2-chloro-4-methanesulfonylbenzyl)-2,4-dimethylquinolin-5-yloxy]acetic Acid]: the Ki was under 100 nM.

Regarding `Cc1c(Cc2ccc(Cl)cc2)c(OC(F)F)nc2c(F)ccc(OCC(=O)O)c12` [Example 30, [3-(4-chlorobenzyl)-2-difluoromethoxy-8-fluoro-4-methylquinolin-5-yloxy]-acetic Acid], the Ki is under 100 nM.

Consider `CC(C)c1nc2c(Cl)ccc(OCC(=O)O)c2c(OC(F)F)c1Cc1ccc(S(C)(=O)=O)cc1` [Example 43, [8-chloro-4-difluoromethoxy-2-isopropyl-3-(4-methanesulfonylbenzyl)quinolin-5-yloxy]acetic Acid], for which the Ki is under 100 nM.

Regarding `Cc1c(Cc2ccc(S(C)(=O)=O)cc2)c(OC(F)F)nc2c(Cl)ccc(CC(=O)O)c12` [Example 36, [8-chloro-2-difluoromethoxy-3-(4-methanesulfonylbenzyl)-4-methylquinolin-5-yl]acetic Acid], the inhibition constant (Ki) is under 100 nM.

Regarding `CCc1nc2c(F)ccc(OCC(=O)O)c2c(OC(F)F)c1Cc1ccc(S(=O)(=O)CC)cc1` [Example 60, [4-difluoromethoxy-3-(4-ethanesulfonylbenzyl)-2-ethyl-8-fluoroquinolin-5-yloxy]acetic Acid], the Ki is under 100 nM.

In turn, `CCc1nc2c(Cl)ccc(OCC(=O)O)c2c(OC(F)F)c1Cc1ccc(Cl)cc1F` [Example 62, [8-chloro-3-(4-chloro-2-fluorobenzyl)-4-difluoromethoxy-2-ethylquinolin-5-yloxy]acetic Acid] displayed a Ki of under 100 nM.

In turn, `Cc1nc2c(Cl)ccc(OCC(=O)O)c2cc1Cc1ccc(Cl)cc1` [Example 10, [8-chloro-3-(4-chlorobenzyl)-2-methylquinolin-5-yloxy]acetic Acid] had a Ki of under 1000 nM.

Take `Cc1c(Cc2ccc(Cl)cc2)c(OC(F)F)nc2c(Cl)ccc(OC(C)(C)C(=O)O)c12` [Example 66, 2-[8-chloro-3-(4-chlorobenzyl)-2-difluoromethoxy-4-methylquinolin-5-yloxy]-2-methylpropionic Acid]: the Ki is under 10000 nM.

As for `CCc1nc2c(Cl)ccc(OCC(=O)O)c2c(OC(F)F)c1Cc1ccc(Cl)cc1` [Example 39, [8-chloro-3-(4-chlorobenzyl)-4-difluoromethoxy-2-ethylquinolin-5-yloxy]acetic Acid], the Ki was under 100 nM.

`Cc1nc2c(Cl)ccc(OCC(=O)O)c2c(OC(F)F)c1Sc1ccc(Cl)cc1` [Example 24, [8-chloro-3-(4-chlorophenylsulfanyl)-4-difluoromethoxy-2-methyl-quinolin-5-yloxy]acetic Acid]: the Ki is under 100 nM.

`Cc1c(Cc2ccc(Cl)cc2Cl)c(OC(F)F)nc2c(F)ccc(OC(C)C(=O)O)c12` (centres unmarked) [Example 67, 2-[3-(2,4-dichlorobenzyl)-2-difluoromethoxy-8-fluoro-4-methylquinolin-5-yloxy]propionic Acid] gave a Ki of under 100 nM.

As for `Cc1nc2c(Cl)ccc(CC(=O)O)c2c(C)c1Cc1ccc(S(C)(=O)=O)cc1` [Example 28, [8-chloro-3-(4-methanesulfonylbenzyl)-2,4-dimethylquinolin-5-yl]acetic acid], the Ki is under 1000 nM.

`CCc1nc2c(F)ccc(O[C@@H](C)C(=O)O)c2c(OC)c1Cc1ccc(Cl)cc1Cl` [Example 75, (S)-2-[3-(2,4-dichlorobenzyl)-2-ethyl-8-fluoro-4-methoxyquinolin-5-yloxy]propionic Acid] gave a Ki of under 100 nM.

With `Cc1nc2c(Cl)ccc(OCC(=O)O)c2c(C)c1Cc1ccc(Cl)cc1` [Example 2, [8-chloro-3-(4-chlorobenzyl)-2,4-dimethylquinolin-5-yloxy]acetic Acid], the Ki is under 100 nM.

The molecule `Cc1nc2c(Cl)ccc(OCC(=O)O)c2c(C)c1[S+]([O-])c1ccc(Cl)cc1` (centres unmarked) [Example 22, [8-chloro-3-(4-chlorobenzenesulfinyl)-2,4-dimethylquinolin-5-yloxy]acetic Acid] displayed a Ki of under 100 nM.

In turn, `Cc1c(Cc2ccc(Cl)cc2F)c(OC(F)F)nc2c(F)ccc(OCC(=O)O)c12` [Example 56, [3-(4-chloro-2-fluorobenzyl)-2-difluoromethoxy-8-fluoro-4-methylquinolin-5-yloxy]acetic Acid] registered a Ki of under 100 nM.

Consider `CCc1nc2c(F)ccc(O[C@@H](C)C(=O)O)c2c(OC(F)F)c1Cc1ccc(C(=O)N2CCCC2)cc1Cl` [Example 73, (S)-2-{3-[2-chloro-4-(pyrrolidine-1-carbonyl)benzyl]-4-difluoromethoxy-2-ethyl-8-fluoroquinolin-5-yloxy}propionic Acid], for which the Ki was under 100 nM.

Take `Cc1c(Cc2ccc(S(C)(=O)=O)cc2Cl)c(OC(F)F)nc2c(F)ccc(OCC(=O)O)c12` [Example 46, [3-(2-chloro-4-methanesulfonylbenzyl)-2-difluoromethoxy-8-fluoro-4-methylquinolin-5-yloxy]acetic acid]: the Ki is under 100 nM.

With `CCc1nc2c(Cl)ccc(OCC(=O)O)c2c(OC(F)F)c1Cc1ccc(F)cc1` [Example 37, [8-chloro-4-difluoromethoxy-2-ethyl-3-(4-fluorobenzyl)quinolin-5-yloxy]acetic Acid], the Ki was under 100 nM.

Take `CCc1nc2c(F)ccc(OCC(=O)O)c2c(OC(F)F)c1Cc1ccc(S(=O)(=O)N2CCOCC2)cc1` [Example 64, {4-difluoromethoxy-2-ethyl-8-fluoro-3-[4-(morpholine-4-sulfonyl)benzyl]quinolin-5-yloxy}acetic acid]: the Ki is under 100 nM.

`CCc1nc2c(F)ccc(OCC(=O)O)c2c(OC(F)F)c1Cc1ccc(C(=O)NC2CCC2)cc1Cl` [Example 76, [3-(2-chloro-4-cyclobutylcarbamoylbenzyl)-4-difluoromethoxy-2-ethyl-8-fluoroquinolin-5-yloxy]acetic Acid] had a Ki of under 100 nM.

Take `Cc1c(Cc2ccc(F)cc2)c(OC(F)F)nc2c(F)ccc(OCC(=O)O)c12` [Example 52, [2-difluoromethoxy-8-fluoro-3-(4-fluorobenzyl)-4-methylquinolin-5-yloxy]acetic Acid]: the Ki is under 100 nM.

`CCc1nc2c(F)ccc(OCC(=O)O)c2c(OC(F)F)c1Cc1ccc(Cl)cc1` [Example 49, [3-(4-chlorobenzyl)-4-difluoromethoxy-2-ethyl-8-fluoroquinolin-5-yloxy]acetic Acid] registered a Ki of under 100 nM.

Source of the values: patent US7858640B2, “Quinolines and their therapeutic use” (Pulmagen Therapeutics (Asthma) Limited, priority 2005, dated 2010).
